Measurements: PMC8488497, “In silico and in vitro analysis of an Aspergillus niger chitin deacetylase to decipher its subsite sugar preferences” (The Journal of Biological Chemistry, 2021)

Biological target: T1, AngCDA (Aspergillus niger, UniProt A2QZC8)
T1 construct: gene An12g04480; signal peptide (residues 1-19) removed; N- and C-terminal Strep-tag II; E. coli Rosetta 2 (DE3); monomer; the crystal used a pelB / C-terminal Strep-tag II construct
T1 sequence (A2QZC8 20-239): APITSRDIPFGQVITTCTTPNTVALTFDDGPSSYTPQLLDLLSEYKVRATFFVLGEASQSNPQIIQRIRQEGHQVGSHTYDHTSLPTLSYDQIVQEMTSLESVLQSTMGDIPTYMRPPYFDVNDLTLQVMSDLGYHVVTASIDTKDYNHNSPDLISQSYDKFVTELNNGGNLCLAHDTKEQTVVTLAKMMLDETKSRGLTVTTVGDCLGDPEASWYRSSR
Assay: HILIC-ESI-MS product quantification and sequencing
Format: biochemical
Settings: deacetylation; 0.5 mM substrate, 50 mM TEA pH 7, 37 °C

| SMILES | HILIC-ESI-MS product quantification and sequencing |
| --- | --- |
| CC(=O)N[C@H]1[C@H](O[C@H]2[C@H](O)[C@@H](NC(C)=O)C(O)O[C@@H]2CO)O[C@H](CO)[C@@H](O[C@@H]2O[C@H](CO)[C@@H](O[C@@H]3O[C@H](CO)[C@@H](O)[C@H](O)[C@H]3NC(C)=O)[C@H](O)[C@H]2NC(C)=O)[C@@H]1O (some centres unmarked) [A4, chitotetraose] | mode of action of AngCDA deacetylating chitotetraose (A4) |
| CC(=O)N[C@H]1[C@H](O[C@H]2[C@H](O)[C@@H](NC(C)=O)[C@H](O[C@H]3[C@H](O)[C@@H](NC(C)=O)C(O)O[C@@H]3CO)O[C@@H]2CO)O[C@H](CO)[C@@H](O[C@@H]2O[C@H](CO)[C@@H](O[C@@H]3O[C@H](CO)[C@@H](O)[C@H](O)[C@H]3NC(C)=O)[C@H](O)[C@H]2NC(C)=O)[C@@H]1O (some centres unmarked) [A5] | mode of action of AngCDA deacetylating chitopentaose (A5) |
